Measured values published in BindingDB's records for patent WO2022112919 (Pfizer, 2022).
pEC50, pKd: −log10 of the molar value.

What was measured:
Transthyretin [1] = target: T1, Transthyretin (Homo sapiens, UniProt P02766); assay: Binding of Examples to Transthyretin - EC50 Determination
Method: TTR SPA binding assays were performed in a final volume of 60 mI containing 100 ng human TTR (biotinylated recombinant protein) coupled to 25 pg SPA beads (streptavidin coated, Perkin Elmer, RPNQ0007) and 50 nM [3H] tafamidis (Moravek, MT-1003033), plus varying concentrations of test compound or vehicle. Briefly, assays were prepared at room temperature in 384-well plates (Corning, 3767) containing 200 nl_ of test compound in DMSO (or DMSO as vehicle). The plates also contained wells with a saturating concentration of unlabeled ligand (200 nl_ of 3 mM tafamidis or 3 mM thyroxine in DMSO) for measuring non-specific binding. Assays were initiated by addition of 20 mI of […] TTR protein in assay buffer (10 mM Tris pH 7.5, 150 mM NaCI, 0.25% Triton X-100) and 20 mI_ of 150 nM [3H] tafamidis in assay buffer. The plates were incubated 1 hour prior to addition of 20 mI_ of 1.25 mg/ml_ SPA beads diluted in assay buffer. The assays were incubated an additional 10 hours to allow binding to reach equilibrium and the amount of receptor-ligand complex was determined by liquid scintillation counting using a 1450 Microbeta Trilux (Wallac). The % effect values for test wells were calculated based on the total binding (vehicle, 0% effect) and non-specific binding (unlabeled ligand, 100% effect) wells on each assay plate. ECso values were then determined using a standard 4 parameter logistic dose response equation.

Transthyretin [2] = target: T1, Transthyretin; assay: KD Determination by SPR
Method: Affinity and Reversibility -The binding affinity and kinetics of binding were measured using Surface Plasmon Resonance based binding assay. These experiments were carried out on Bruker SPR MASS-1 and MASS-2 instruments. There was no significant difference in results obtained on both these instruments. Bap-tagged TTR protein was captured on a Streptavidin coated sensor chip to achieve about 2000 to 3000 RUs of surface density. All the samples were prepared in buffer consisting of 10 mM Sodium Phosphate, pH 7.6, 100 mM KCI, 0.005% Tween-20 and 2% DMSO. The same buffer was used as the running buffer during the experiments. Compound samples were injected at a flow rate of 30 pL/min for 90 seconds of association time followed by at least 240 seconds of dissociation period. The compounds were tested in a concentration series consisting of at least 6 samples (usually 10) made with 5-fold, 3-fold, or 2-fold dilution. The highest concentration was […] or selected based on compound binding affinity observed in a previous experiment. […] The data were processed and analyzed using Bruker Analyzer and Scrubber to calculate binding affinities by fitting the data to 1:1 binding model. […] Tafamidis binds to TTR in a reversible manner with calculated residence time of around 40 seconds.

Row | pEC50 (Transthyretin [1]) | pKd (Transthyretin [2]) | Compound
1 | 7.68 | – | Cc1cc(-c2c(C)n[nH]c2C)c2ncsc2c1 [WO2022112919, Example 13]
2 | 7.70 | – | Cc1[nH]nc(C#N)c1-c1ccc(C)c2scnc12 [WO2022112919, Example 8]
3 | 7.44 | – | Cc1[nH]nc(C#N)c1-c1ccc(C(F)(F)F)c2scnc12 [WO2022112919, Example 9]
4 | 7.68 | – | Cc1n[nH]c(C)c1-c1cc(F)cc2scnc12 [WO2022112919, Example 15]
5 | – | 7.41 | Cc1n[nH]c(C)c1-c1ccnc2scnc12 [WO2022112919, Example 19]
6 | 7.85 | 7.77 | Cc1n[nH]c(C)c1-c1cccc2ncsc12 [WO2022112919, Example 2]
7 | 7.60 | – | COc1cc(-c2c(C)n[nH]c2C)c2ncsc2c1 [WO2022112919, Example 14]
